From PubChem BioAssay (NCI) come the findings set out here.

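Each compound was tested at five concentrations against cells in 96-well plates for 48 hours. At the GI50, growth is halved. TGI marks complete inhibition of growth.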 Bounds are passed on as bounds.

Some test systems named below: SF-539 CNS; NCI-H226 lung; HOP-62 NSCLC; MALME-3M melanoma; OVCAR-3 ovarian; LOX IMVI melanoma; NCI-H460 lung; RXF 393 renal; OVCAR-8 ovarian; TK-10 renal.
Assay in all cases: growth of human tumour cells (NCI), 48 h

With `CCOC(=O)c1cc2cc([N+](=O)[O-])ccc2oc1=O`, the TGI in the test with SF-539 CNS, in the test with NCI-H226 lung, in the test with HOP-62 NSCLC, in the test with MALME-3M melanoma, in the test on OVCAR-3 ovarian and in the test with LOX IMVI melanoma was over 100 µM each time. Also, the TGI in the test on NCI-H460 lung, with RXF 393 renal and with OVCAR-8 ovarian was over 100 µM throughout.

As for `COc1cc(SC)ccc1C(=O)N1CCCC(C)C1` (centres undefined), the GI50 in the test on TK-10 renal was over 100 µM; in the test on SF-539 CNS it was over 100 µM; in the test on NCI-H226 lung it was 80.4 µM; in the test on HOP-62 NSCLC, over 100 µM; in the test with MALME-3M melanoma, over 100 µM; in the test on OVCAR-3 ovarian, over 100 µM. Moreover, the GI50 with LOX IMVI melanoma, in the test on NCI-H460 lung and with OVCAR-8 ovarian was over 100 µM in each case. For the same compound, the TGI in the test with TK-10 renal, with SF-539 CNS, in the test with NCI-H226 lung, in the test with HOP-62 NSCLC, in the test with MALME-3M melanoma and in the test with OVCAR-3 ovarian was over 100 µM throughout. In addition, the TGI in the test on LOX IMVI melanoma, in the test on NCI-H460 lung and with OVCAR-8 ovarian was over 100 µM each time.

On to `C=C1C(=O)C23C(CC(OC(C)=O)C1[C@@H]2OC(C)=O)C1(C)C(OC(C)=O)CCC(C)(C)C1C[C@@H]3OC(C)=O` (some centres undefined), for which the TGI in the test with SF-539 CNS was determined as 3.16 µM; with NCI-H226 lung it was 3.13 µM; in the test on HOP-62 NSCLC, 7.98 µM; in the test on MALME-3M melanoma, 3.01 µM; in the test on OVCAR-3 ovarian, 3.03 µM; in the test with LOX IMVI melanoma it was 2.63 µM. Besides, the figures for the TGI with NCI-H460 lung, with RXF 393 renal and with OVCAR-8 ovarian were 3.37 µM, 0.831 µM and 1.59 µM, respectively.

Consider `CN(C)/C(=N/C(=O)Nc1ccccc1)SCc1ccccc1`, for which the TGI in the test with TK-10 renal, in the test with SF-539 CNS, in the test with NCI-H226 lung, in the test with HOP-62 NSCLC, with MALME-3M melanoma and in the test on OVCAR-3 ovarian was over 100 µM in each case. For the same compound, the TGI in the test on LOX IMVI melanoma, in the test with RXF 393 renal and in the test on OVCAR-8 ovarian was over 100 µM throughout.

Consider `O=[N+]([O-])C(=C(c1ccccc1)c1ccccc1)[N+](=O)[O-]`, for which the TGI with TK-10 renal came out at 33.2 µM; in the test on SF-539 CNS, 26.5 µM; with NCI-H226 lung, 61.5 µM; in the test with OVCAR-3 ovarian, 35.5 µM; with LOX IMVI melanoma, 9.68 µM; in the test with NCI-H460 lung, 21 µM. Also, the TGI with RXF 393 renal was 6.71 µM; in the test with OVCAR-8 ovarian, 21.5 µM.

As for `NC(=O)c1ccc(-c2c3ccccc3cc3c2ccc2ccccc23)cc1`, the GI50 was 3.59 µM with SF-539 CNS; 6.97 µM in the test with NCI-H226 lung; 4.28 µM in the test with HOP-62 NSCLC; 4.99 µM in the test on MALME-3M melanoma; 1.94 µM in the test with OVCAR-3 ovarian; 4.86 µM with LOX IMVI melanoma. Further, the GI50 in the test with NCI-H460 lung is 3.31 µM; with RXF 393 renal it was 2.12 µM; in the test on OVCAR-8 ovarian, 6.51 µM. For the same compound, the TGI in the test with SF-539 CNS was 15.5 µM; in the test on NCI-H226 lung, 52.3 µM; with HOP-62 NSCLC it was 23.2 µM; in the test with MALME-3M melanoma, 54 µM; in the test on OVCAR-3 ovarian it was 6.98 µM; with LOX IMVI melanoma it was 32.6 µM. Moreover, the TGI in the test on NCI-H460 lung stood at 14.9 µM; with RXF 393 renal, 7.48 µM; with OVCAR-8 ovarian, 36.3 µM.

Regarding `C/C(=N\n1c(N)c(C#N)c(-c2ccc(Cl)cc2)c(C#N)c1=O)c1cccnc1`, the GI50 in the test with TK-10 renal, with NCI-H226 lung, in the test on HOP-62 NSCLC, with MALME-3M melanoma, in the test with OVCAR-3 ovarian and in the test with LOX IMVI melanoma was over 100 µM each time. Further, the GI50 with NCI-H460 lung and with OVCAR-8 ovarian was over 100 µM throughout. In addition, the TGI in the test on TK-10 renal, with NCI-H226 lung, in the test with HOP-62 NSCLC, in the test on MALME-3M melanoma, in the test on OVCAR-3 ovarian and in the test with LOX IMVI melanoma was over 100 µM throughout. Also, the TGI with NCI-H460 lung and in the test with OVCAR-8 ovarian was over 100 µM in each case.

For the compound `CC(=O)Nc1[nH]c(=O)[nH]c(=O)c1N(C(C)=O)C(C)=O`, the TGI in the test with SF-539 CNS, with NCI-H226 lung, with MALME-3M melanoma, with OVCAR-3 ovarian, in the test with LOX IMVI melanoma and in the test on NCI-H460 lung was over 100 µM each time. The TGI in the test on RXF 393 renal and with OVCAR-8 ovarian was over 100 µM in each case.

Regarding `O=C(O)CNS(=O)(=O)c1ccc(NC(=O)c2cccc([N+](=O)[O-])c2)cc1`, the TGI with TK-10 renal, in the test on SF-539 CNS, in the test with NCI-H226 lung, in the test on MALME-3M melanoma, in the test with OVCAR-3 ovarian and with LOX IMVI melanoma was over 100 µM in each case. In addition, the TGI with NCI-H460 lung, in the test on RXF 393 renal and in the test on OVCAR-8 ovarian was over 100 µM throughout.

For `Cc1cc(C(=O)NCCN(C)C)c2nc3ccccc3nc2c1`, the TGI in the test with TK-10 renal is over 59.1 µM; in the test with SF-539 CNS, 19.4 µM; with NCI-H226 lung, 14.3 µM; with HOP-62 NSCLC it was 10.4 µM; in the test on MALME-3M melanoma it was 13.8 µM; with OVCAR-3 ovarian, 40.4 µM. Also, the TGI is 9.17 µM in the test with LOX IMVI melanoma, 19.7 µM with RXF 393 renal and over 76.6 µM in the test on OVCAR-8 ovarian.

`ClCc1ccc(Cn2cnc3ncnc(Cl)c32)cc1`: the GI50 in the test with TK-10 renal is 1.48 µM; in the test on SF-539 CNS, 2.08 µM; with NCI-H226 lung, 2.99 µM; in the test with HOP-62 NSCLC, 1.78 µM; in the test with OVCAR-3 ovarian, 1.8 µM; in the test with NCI-H460 lung it was 1.78 µM. Besides, the GI50 in the test on RXF 393 renal is 1.67 µM; with OVCAR-8 ovarian, 3.14 µM. Also, the TGI in the test with TK-10 renal was found to be 2.92 µM; in the test with SF-539 CNS, 3.74 µM; in the test on NCI-H226 lung, 12 µM; in the test on HOP-62 NSCLC it was 3.16 µM; in the test with OVCAR-3 ovarian, 3.39 µM; in the test with NCI-H460 lung, 4.31 µM. For the same compound, the TGI in the test with RXF 393 renal is 4.14 µM; in the test with OVCAR-8 ovarian, 11 µM.
